Laboratory results taken from PubChem BioAssay AID1845197 (Molecular Pharmacology Branch, DTP, NCI, 2023).

Test system: 349418-098-R tumor spheroid viability
Assay: Anticancer human tumor 349418-098-R patient-derived lung adenocarcinoma cell line growth inhibition
Conditions: spheroids with HUVEC and MSC; for IC50: curve of first compound; for viability, T/C: stronger effect = lower value
How it was run: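 Complex tumor spheroids combined malignant cells with endothelial cells and mesenchymal stem cells. DNA-damaging drugs and DNA repair inhibitors were tested alone and in combination, at half-log dilutions down from clinical Cmax (top 10 microM if Cmax unknown), 0.25% DMSO final.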

[1] = second compound 1 µM, first compound 0.0316 µM
[2] = second compound 1 µM, first compound 0.1 µM
[3] = second compound 1 µM, first compound 0.316 µM
[4] = second compound 1 µM, first compound 1 µM
[5] = second compound 1 µM, first compound 3.16 µM
[6] = second compound 1 µM, first compound 10 µM
[7] = second compound 3.16 µM, first compound 0.0316 µM
[8] = second compound 3.16 µM, first compound 0.1 µM
[9] = second compound 3.16 µM, first compound 0.316 µM
[10] = second compound 3.16 µM, first compound 1 µM
[11] = second compound 3.16 µM, first compound 3.16 µM
[12] = second compound 3.16 µM, first compound 10 µM
[13] = second compound 10 µM, first compound 0.0316 µM
[14] = second compound 10 µM, first compound 0.1 µM
[15] = second compound 10 µM, first compound 0.316 µM
[16] = second compound 10 µM, first compound 1 µM
[17] = second compound 10 µM, first compound 3.16 µM
[18] = second compound 10 µM, first compound 10 µM
[19] = second compound 31.6 µM, first compound 0.0316 µM
[20] = second compound 31.6 µM, first compound 0.1 µM
[21] = second compound 31.6 µM, first compound 0.316 µM
[22] = second compound 31.6 µM, first compound 1 µM
[23] = second compound 31.6 µM, first compound 3.16 µM
[24] = second compound 31.6 µM, first compound 10 µM
[25] = second compound 100 µM, first compound 0.0316 µM
[26] = second compound 100 µM, first compound 0.1 µM
[27] = second compound 100 µM, first compound 0.316 µM
[28] = second compound 100 µM, first compound 1 µM
[29] = second compound 100 µM, first compound 3.16 µM
[30] = second compound 100 µM, first compound 10 µM
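Also: spheroids exposed to compound for 7 days before measurement.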
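For viability, T/C in this document: percent of vehicle control viability with 100% = DMSO-treated spheroids.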

| Structure (SMILES) | IC50 (second compound 1 µM) | IC50 (second compound 3.16 µM) | IC50 (second compound 10 µM) | IC50 (second compound 31.6 µM) | IC50 (second compound 100 µM) | viability, T/C [1] | viability, T/C [2] | viability, T/C [3] | viability, T/C [4] | viability, T/C [5] | viability, T/C [6] | viability, T/C [7] | viability, T/C [8] | viability, T/C [9] | viability, T/C [10] | viability, T/C [11] | viability, T/C [12] | viability, T/C [13] | viability, T/C [14] | viability, T/C [15] | other results |
| --- | --- | --- | --- | --- | --- | --- | --- | --- | --- | --- | --- | --- | --- | --- | --- | --- | --- | --- | --- | --- | --- |
| CC(C)n1c(=O)n(C)c2cnc3cc(F)c(-c4ccc(OCCCN5CCCCC5)nc4)cc3c21 + Cn1nnc2c(C(N)=O)ncn2c1=O | 9.75 µM | 9 µM | 9.25 µM | 8.89 µM | 8.48 µM | 104% | 99.5% | 101% | 101% | 103% | 48.8% | 102% | 105% | 103% | 103% | 102% | 44.7% | 98.6% | 103% | 99.6% | viability, T/C [16]: 103%; viability, T/C [17]: 104%; viability, T/C [18]: 46.3%; viability, T/C [19]: 102%; viability, T/C [20]: 106%; viability, T/C [21]: 98.4%; viability, T/C [22]: 105%; viability, T/C [23]: 105%; viability, T/C [24]: 43.9%; viability, T/C [25]: 103%; viability, T/C [26]: 107%; viability, T/C [27]: 105%; viability, T/C [28]: 102%; viability, T/C [29]: 102%; viability, T/C [30]: 41.3% |
| COc1ccc([C@@H](O)c2cc(-c3ncnc4cc(N5CCOCC5)ccc34)c(F)cc2Cl)nn1 + Cn1nnc2c(C(N)=O)ncn2c1=O | 5.61 µM | 5.09 µM | 5.17 µM | 4.27 µM | 3.61 µM | 97.6% | 95.6% | 101% | 97.7% | 73.3% | 26.4% | 103% | 99% | 106% | 102% | 70.1% | 21.3% | 99.8% | 97.5% | 103% | viability, T/C [16]: 104%; viability, T/C [17]: 66%; viability, T/C [18]: 28.5%; viability, T/C [19]: 99.1%; viability, T/C [20]: 104%; viability, T/C [21]: 101%; viability, T/C [22]: 106%; viability, T/C [23]: 59.8%; viability, T/C [24]: 22.2%; viability, T/C [25]: 102%; viability, T/C [26]: 112%; viability, T/C [27]: 107%; viability, T/C [28]: 102%; viability, T/C [29]: 53.4%; viability, T/C [30]: 24.1% |
